36 compounds from US20170280720A1, “ARGININE […] INHIBITORS AND USES THEREOF” (EPIZYME, INC., priority 2014, published 2017) can be followed below.

The experiment deals with asymmetric di-methyl PABP1 in RKO cells. The experiment in a line: In Cell Western (ICW) for asymmetric di-methyl PABP1 and DNA content in RKO cells. As to conditions: Homo sapiens, RKO, In Cell Western. Type of experiment: cell-based. In a few lines:
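RKO cells treated with compound for 48 h at 37 °C, then fixed, methanol-permeabilized and stained for asymmetric di-methyl PABP1 (800 nm) with DRAQ5 DNA stain (700 nm). Signal ratio normalized to DMSO and 20 μM reference-compound controls. IC50 from nine 3-fold dilutions in triplicate.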

Turning to `CNCCN(C)Cc1cccc(-c2cc(N)c3cnn(C(C)C)c3n2)c1` [Compound 151], inhibition was half-maximal at 20 µM (IC50).
Turning to `CNCCN(C)Cc1cccc(-c2cc(NS(=O)(=O)C(F)(F)F)c3cnn(C(C)C)c3n2)c1` [Compound 164], inhibition was half-maximal at 11.9 µM (IC50).
Regarding `CNCCN(C)Cc1cccc(-c2cc(C(=O)NCc3cnn(C)c3C)c3cnn(C(C)C)c3n2)c1` [Compound 137], the IC50 (commonly the point on the concentration scale where inhibition reaches its midpoint) is 9.62 µM.
In turn, `CNCCN(C)Cc1cccc(-c2cc(Oc3ccccc3)c3cnn(C(C)C)c3n2)c1` [Compound 45] gave a concentration for half-maximal inhibition (IC50) of 20 µM.
Turning to `CNCCN(C)Cc1cccc(-c2cc(C(=O)NCc3ccccc3F)c3cnn(C(C)C)c3n2)c1` [Compound 38], the 50% inhibitory concentration (IC50) turned out to be 4.12 µM.
`CCS(=O)(=O)Nc1cc(-c2cccc(CN(C)CCNC)c2)nc2c1cnn2C(C)C` [Compound 161]: the IC50 was 11.3 µM.
Turning to `CNCCN(C)Cc1cccc(-c2cc(NS(C)(=O)=O)c3cnn(C(C)C)c3n2)c1` [Compound 169], the IC50 is 13.3 µM.
The value for `CC(C)n1ncc2c(C(=O)NCC3CCOCC3)cc(-c3cccc(CN(C)CCNC4CC4)c3)nc21` [Compound 167] was 5.14 µM; that for `CN(CCN)Cc1cccc(-c2cc(C(=O)NC3CCOCC3)c3cnn(C4CC4)c3n2)c1` [Compound 142] was 2.77 µM; that for `CC(C)n1ncc2c(N3CCOCC3)cc(-c3cccc(CN(C)CCNC4CC4)c3)nc21` [Compound 163] was 11.6 µM.
The compound `CNCCN(C)Cc1cccc(-c2cc(NC3CC3)c3cnn(C(C)C)c3n2)c1` [Compound 11] had an IC50 of 3.44 µM.
As to `CNCCN(C)Cc1cccc(-c2cc(C(=O)NCC3CCOCC3)c3cnn(C4CC4)c3n2)c1` [Compound 26], inhibition was half-maximal at 2.15 µM (IC50).
The value for `CC(C)n1ncc2c(C(=O)N3CCCCC3)cc(-c3cccc(CN(C)CCN)c3)nc21` [Compound 43] was 20 µM; that for `CNCCN(C)Cc1cccc(-c2cc(C(=O)NCC3CCOCC3)c3cnn(C4CCC4)c3n2)c1` [Compound 21] was 7.37 µM; that for `CN(CCN)Cc1cccc(-c2cc(C(=O)NC3CCOCC3)c3cnn(CC(F)(F)F)c3n2)c1` [Compound 144] was 8.46 µM.
Take `CNCCN(C)Cc1cccc(-c2cc(NC(=O)NC)c3cnn(C(C)C)c3n2)c1` [Compound 138]: half-maximal inhibition (IC50) required 7.74 µM.
The compound `Cc1nn(C(C)C)c2nc(-c3cccc(CN(C)CCN)c3)cc(N3CCOCC3)c12` [Compound 22, N1-(3-(1-isopropyl-3-methyl-4-morpholino-1H-pyrazolo[3,4-b]pyridin-6-yl)benzyl)-N1-methylethane-1,2-diamine] had an IC50 of 3.11 µM.
In turn, `CN(CCN)Cc1cccc(-c2cc(C(=O)NC3CCOCC3)c3cnn(C)c3n2)c1` [Compound 158] gave an IC50 of 13.5 µM.
As for `CC(C)n1ncc2c(C(=O)NCc3ccccc3)cc(-c3cccc(CN(C)CCN)c3)cc21` [Compound 14], inhibition was half-maximal at 20 µM (IC50).
Compound `CNCCN(C)Cc1cccc(-c2cnc3c(c2)OCC(=O)N3)c1` [Compound 355] yielded an IC50 of 12.8 µM.
`CNCCN(C)Cc1cccc(-c2cc(NS(=O)(=O)N(C)C)c3cnn(C(C)C)c3n2)c1` [Compound 139] displayed an IC50 of 4.86 µM.
The value for `CC(C)n1ncc2c(C(=O)N3CCCCC3)cc(-c3cccc(CNCCN)c3)nc21` [Compound 153] was 20 µM.
The compound `CC(C)n1ncc2c(C(=O)NC3CCOCC3)cc(-c3cccc(CN(C)CCN)c3)nc21` [Compound 148] registered an IC50 of 0.972 µM.
`CC(C)n1ncc2c(NC3CC3)cc(-c3cccc(CN(C)CCN)c3)nc21` [Compound 41] registered a 50% inhibitory concentration (IC50) of 5.94 µM.
`CNCCN(C)Cc1cccc(-c2nc(NCc3cc(C)nn3C)c3cnn(C4CC4)c3n2)c1` [Compound 17]: 20 µM corresponded to half-maximal inhibition (IC50).
The value for `CNCCN(C)Cc1cccc(-c2ccc3cn(Cc4ccccc4)nc3n2)c1` [Compound 35] was 3.05 µM.
Compound `CNCCN(C)Cc1cccc(-c2cnc3c(c2)c(Br)nn3CC2CCOCC2)c1` [Compound 39] returned an IC50 of 20 µM.
Compound `CNCCN(C)Cc1cc(-c2cc(C(=O)NC3CCOCC3)c3cnn(C(C)C)c3n2)ccc1F` [Compound 130] showed an IC50 of 11.5 µM.
`CNCCN(C)Cc1cccc(-c2nc(NC3CCOCC3)c3cnn(C(C)(C)C)c3n2)c1` [Compound 27, N1-(3-(1-tert-butyl-4-(tetrahydro-2H-pyran-4-ylamino)-1H-pyrazolo[3,4-d]pyrimidin-6-yl)benzyl)-N1,N2-dimethylethane-1,2-diamine] returned an IC50 of 0.387 µM.
The value for `CCC(=O)c1cc(-c2cccc(CN(C)CCNC)c2)nc2c1cnn2C(C)C` [Compound 128] was 20 µM; that for `CNC(=O)Nc1cc(-c2cccc(CN(C)CCN)c2)nc2c1cnn2C(C)C` [Compound 126] was 10.8 µM.
On to `CC(C)n1ncc2c(C(=O)NCc3ccccc3F)cc(-c3cccc(CNCCN)c3)nc21` [Compound 159], for which the IC50 turned out to be 20 µM.
`CNCCN(C)Cc1cccc(-c2cc(Nc3ncc(C)s3)c3cnn(C(C)C)c3n2)c1` [Compound 20] showed an IC50 of 3.33 µM.
With `CNCCN(C)Cc1cccc(-c2cc(NC(=O)NC3CCOCC3)c3cnn(C(C)C)c3n2)c1` [Compound 133] the figure was 11.5 µM.
The value for `CNCCN(C)Cc1cccc(-c2cc(C(=O)NC3CCOCC3)c3cnn(C4CCC4)c3n2)c1` [Compound 29] was 5.21 µM; that for `CN(CCN)Cc1cccc(-c2nc(NC3CCOCC3)c3cnn(C(C)(C)C)c3n2)c1` [Compound 18] was 0.442 µM.
